# Laboratory results reported in EP0514133A1, “Benzodiazepine derivatives, compositions containing them and their use in therapy” (priority 1991, dated 1992).
# Tests used:
# [1] = molecular target: T1, CCK receptor (pancreas) (Rattus norvegicus, UniProt P30551); assay: biochemical; format: binding; conditions: rat pancreas membranes, 50 pM 125I-CCK-8, 25°C 2 hours
# T1 construct: The whole pancreas was dissected free of fat tissue and was homogenized; from tissue; host or cells: rat pancreas membrane homogenate
# T1 sequence (P30551 1-444): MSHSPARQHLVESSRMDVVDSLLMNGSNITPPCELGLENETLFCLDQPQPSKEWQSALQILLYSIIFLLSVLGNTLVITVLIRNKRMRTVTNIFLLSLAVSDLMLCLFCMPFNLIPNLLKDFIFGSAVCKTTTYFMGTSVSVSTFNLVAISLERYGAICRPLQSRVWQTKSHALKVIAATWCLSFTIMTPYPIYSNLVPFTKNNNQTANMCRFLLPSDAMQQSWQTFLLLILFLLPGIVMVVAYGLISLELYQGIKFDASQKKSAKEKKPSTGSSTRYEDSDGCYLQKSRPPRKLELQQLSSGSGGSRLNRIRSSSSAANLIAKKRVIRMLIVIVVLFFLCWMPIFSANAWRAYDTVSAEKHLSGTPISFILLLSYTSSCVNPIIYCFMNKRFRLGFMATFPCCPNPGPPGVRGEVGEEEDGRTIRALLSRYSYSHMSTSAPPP
# Procedure: CCK-8 sulphated was radiolabelled with ¹²⁵I-Bolton Hunter reagent (2000 Ci/mmole). Receptor binding was performed according to Chang and Lotti (Proc. Natl. Acad. Sci. 83, 4923-4926, 1986) with minor modifications.
# Male Sprague-Dawley rats (150-200g) were sacrificed by decapitation. The whole pancreas was dissected free of fat tissue and was homogenized in 25 volumes of ice-cold 10 mM N-2-hydroxyethyl-piperazine-N′-2-ethane sulphonic acid (HEPES) buffer with 0.1% soya bean trypsin inhibitor (pH 7.4 at 25°C) with a Kinematica Polytron. The homogenates were centrifuged at 47,800 g for 10 min. Pellets were resuspended in 10 volumes of binding assay buffer (20mM (HEPES)), 1mM ethylene glycol-bis-(β-aminoethylether-N,N′-tetraacetic acid) (EGTA), 5mM MgCl₂, 150 mM NaCl, bacitracin 0.25 mg/ml, soya bean trypsin inhibitor 0.1 mg/ml, and bovine serum albumin 2 mg/ml pH 6.5 at 25°C) using a Teflon (trademark) homogenizer, 15 strokes at 500 rpm. The homogenate was further diluted in binding assay buffer to give a final concentration of 0.5 mg original wet weight/1 ml buffer. […] All assays were run in duplicate. The reaction mixtures were incubated at 25°C for 2 hours and the reaction terminated by rapid filtration (Brandell 24 well cell harvester) over Whatman GF/C filters, washing 3 x 4 mls with ice-cold 100 Mm NaCl. The radioactivity on the filters was counted with a LKB gamma counter.
# (§1) Drug displacement studies were performed with at least 10 concentrations of compounds of Formula I and the IC₅₀ values were determined by regression analysis IC₅₀ refers to the concentration of the compound required to inhibit 50% of specific binding of ¹²⁵I-CCK-8.
# [2] = molecular target: T2, Gastrin Receptor (Cavia porcellus, UniProt H0VZC5); assay: Gastrin Receptor Binding in Guinea Pig Gastric Glands, 125I-gastrin; set-up: from tissue; host or cells: isolated guinea pig gastric mucosal glands; conditions: 0.1 nM 125I-gastrin, 25°C 30 minutes
# T2 sequence (H0VZC5 1-426): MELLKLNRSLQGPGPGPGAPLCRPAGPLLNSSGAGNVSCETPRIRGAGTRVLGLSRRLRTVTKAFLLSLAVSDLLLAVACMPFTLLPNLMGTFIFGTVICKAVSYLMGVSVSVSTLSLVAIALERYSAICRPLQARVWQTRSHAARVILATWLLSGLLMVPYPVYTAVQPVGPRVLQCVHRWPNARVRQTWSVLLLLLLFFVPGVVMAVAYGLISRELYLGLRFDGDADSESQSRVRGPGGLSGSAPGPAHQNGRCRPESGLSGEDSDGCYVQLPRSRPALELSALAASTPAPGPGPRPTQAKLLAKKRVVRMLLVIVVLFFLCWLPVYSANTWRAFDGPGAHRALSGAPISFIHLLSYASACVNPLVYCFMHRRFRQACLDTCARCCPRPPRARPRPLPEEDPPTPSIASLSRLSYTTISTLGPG
# Procedure: Gastrin antagonist activity of compounds of Formula I was determined using the following assay.
# Guinea pig gastric mucosal glands were prepared by the procedure of Chang et. al., Science, 230, 177-179 (1985) with slight modifications. […] The tissues were passed twice through a 5 ml syringe to liberate the gastric glands, and then filtered through Nitex (trademark) #202 gauge nylon mesh. The filtered glands were centrifuged at 272 g for 5 minutes and washed twice by resuspension in 25 ml buffer and centrifugation.
# The washed guinea pig gastric glands prepared as above were resuspended in 25 ml of standard buffer. For binding studies, to 250 µl of gastric glands, 30 µl of buffer (for total binding) or gastrin (3 µM final concentration, for nonspecific binding) or test compound and 20 µl of ¹²⁵I-gastrin (NEN, 2200 Ci/mmole, 0.1 nM final concentration) were added. All assays were run in triplicate. […] The reaction mixtures, after incubation at 25°C for 30 minutes in a shaking water bath were rapidly filtered (Brandell 24 well cell harvester) over Whatman G/F B filters presoaked in assay buffer and immediately washed further with 3 x 4 ml of 100 mM ice cold NaCl. The radioactivity on the filters was measured using a LKB gamma counter.
# [3] = molecular target: T3, CCK receptor (brain, cortex) (Cavia porcellus, UniProt H0VZC5); assay: biochemical; format: binding, guinea pig; conditions: guinea pig cortex membranes, 50 pM 125I-CCK-8, 25°C 2 hours; read-out: IC50 ^125I-CCK Brain
# T3 construct: the cortex was removed and homogenized in 25 mL ice-cold 0.32 M sucrose; from tissue; host or cells: guinea pig brain cortex P2 membrane pellet
# T3 sequence (H0VZC5 1-426): T2 sequence (H0VZC5 1-426)
# Procedure: CCK-8 sulphated was radiolabelled and the binding was performed according to the description for the pancreas method with minor modifications.
# Male Hartley guinea pigs (300-500g) were sacrificed by decapitation and the cortex was removed and homogenized in 25 mL ice-cold 0.32 M sucrose. The homogenates were centrifuged at 1000 g for 10 minutes and the resulting supernatant was recentrifuged at 20,000 g for 20 minutes. The P₂ pellet was resuspended in binding assay buffer (20mM HEPES, 5 mM MgCl₂, 0.25 mg/ml bacitracin, 1 mM EGTA pH 6.5 at 25°C), using a Teflon (trademark) homogenizer (5 strokes at 500 rpm) to give a final concentration of 10 mg original wet weight/1.2 ml buffer. […] All assays were run in duplicate. The reaction mixtures were incubated at 25°C for 2 hours and then the reaction was terminated by rapid filtration (Brandell 24 well cell harvester) on Whatman GF/C filters with 3 x 5 ml washes of cold 100 mM NaCl. The radioactivity on the filters was counted with a LKB gamma counter.
# as §1
SMILES,IC50 [1] [nM],IC50 [2] [nM],IC50 [3] [nM]
"CC(C)S(=O)(=O)NC(=O)c1cccc(NC(=O)NC2N=C(C3CCCCC3)c3ccccc3N(C)C2=O)c1 (racemic) [Example 12, N-[3(R,S)-5-Cyclohexyl-2,3-dihydro-1-methyl-2-oxo-1H-1,4-benzodiazepin-3-yl] N′-[3-(isopropylsulphonylaminocarbonyl)phenyl] urea]",12.4,3.24,
"Cc1cccc(NC(=O)NC2N=C(C3CCCCC3)c3ccccc3N(C)C2=O)c1 (racemic) [Example 1, N-[3(R,S)-5-Cyclohexyl-2,3-dihydro-1-methyl-2-oxo-1H-1,4-benzodiazepin-3-yl] N′-[3-methylphenyl] urea]",,0.83,2.2
"Cc1cccc(NC(=O)NC2N=C(C3CCCCC3)c3ccccc3N(C)C2=O)c1 (single isomer, unassigned) [7 (Peak A)]",,0.92,0.47
"CC(C)S(=O)(=O)NC(=O)c1cccc(NC(=O)NC2N=C(C3CCCCC3)c3ccccc3N(C)C2=O)c1 (single isomer, unassigned) [24 (Peak A)]",1180,0.7,
"CCCN1C(=O)C(NC(=O)Nc2cccc(-c3nn[nH]n3)c2)N=C(C2CCCC2)c2ccccc21 (racemic) [Example 6, N-[3(R,S)-5-Cyclopentyl-2,3-dihydro-1-propyl-2-oxo-1H-1,4-benzodiazepin-3-,yl] N′-[3-tetrazol-5-ylphenyl] urea]",1100,,0.96
"CN1C(=O)C(NC(=O)Nc2ccc3c(c2)C(=O)NS(=O)(=O)C3)N=C(C2CCCCC2)c2ccccc21 (racemic) [Example 44, N-[3(R,S)-5-Cyclohexyl-2,3-dihydro-1-methyl-2-oxo-1H-1,4-benzodiazepin-3-yl] N′-(3,4-dihydro-2,2-dioxo-4-oxo-1H-2,3-benzothiazin-6-yl] urea]",100,,3.4
"CCCN1C(=O)C(NC(=O)Nc2cccc(C(=O)NS(=O)(=O)C(C)(C)C)c2)N=C(C2CCCC2)c2ccccc21 (racemic) [Example 37, N-[3(R,S)-5-Cyclopentyl-2,3-dihydro-1-propyl-2-oxo-1H-1,4-benzodiazepin-3-yl] N′-[3-(1,1-dimethylethylsulphonylaminocarbonyl)phenyl] urea]",960,,0.19
"CN1C(=O)C(NC(=O)Nc2cccc(-c3nnn(C)n3)c2)N=C(C2CCCCC2)c2ccccc21 (racemic) [Example 28, N-[3(R,S)-5-Cyclohexyl-2,3-dihydro-1-methyl-2-oxo-1H-1,4-benzodiazepin-3-yl] N′-[3-(2-methyltetrazol-5-yl)phenyl]urea]",8.3,,4
"CC(C)C(=O)NS(=O)(=O)c1cccc(NC(=O)NC2N=C(C3CCCCC3)c3ccccc3N(C)C2=O)c1 (racemic) [Example 11, N-[3(R,S)-5-Cyclohexyl-2,3-dihydro-1-methyl-2-oxo-1H-1,4-benzodiazepin-3-yl] N′-(3-(isopropylcarbonylaminosulphonyl)phenyl] urea]",118,,0.32
"CC(C)CN1C(=O)C(NC(=O)Nc2cccc(-c3nn[nH]n3)c2)N=C(C2CCCC2)c2ccccc21 (racemic) [Example 3, N-[3(R,S)-5-Cyclopentyl-2,3-dihydro-1-(2-methylpropyl)-2-oxo-1H-1,4-benzodiazepin-3-yl] N′-[3-tetrazol-5-ylphenyl]urea]",800,,0.3
"CCS(=O)(=O)NC(=O)c1cccc(NC(=O)NC2N=C(C3CCCCC3)c3ccccc3N(C)C2=O)c1 (racemic) [Example 23, N-[3(R,S)-5-Cyclohexyl-2,3-dihydro-1-methyl-2-oxo-1H-1,4-benzodiazepin-3-yl] N′-[3-(ethylsulphonylaminocarbonyl)phenyl]urea]",5,,0.96
"CCN1C(=O)C(NC(=O)Nc2cccc(C(=O)NS(=O)(=O)C(C)C)c2)N=C(C2CCCC2)c2ccccc21 (racemic) [Example 30, N-[3(R,S)-5-Cyclopentyl-2,3-dihydro-1-ethyl-2-oxo-1H-1,4-benzodiazepin-3-yl] N′-[3-(isopropylsulphonylaminocarbonyl)phenyl] urea]",170,,3.2
"CN1C(=O)C(NC(=O)Nc2cccc(C(=O)NS(=O)(=O)C(F)(F)F)c2)N=C(C2CCCCC2)c2ccccc21 (racemic) [Example 18, N-[3(R,S)-5-Cyclohexyl-2,3-dihydro-1-methyl-2-oxo-1H-1,4-benzodiazepin-3-,yl] N′-[3-(trifluoromethylsulphonylaminocarbonyl)phenyl] urea]",13.8,,0.09
"CCCN1C(=O)C(NC(=O)Nc2cccc(C(=O)NS(=O)(=O)C(C)C)c2)N=C(C2CCCC2)c2ccccc21 (racemic) [Example 36, N-[3(R,S)-5-Cyclopentyl-2,3-dihydro-1-propyl-2-oxo-1H-1,4-benzodiazepin-3-yl] N′-[3-(isopropylsulphonylaminocarbonyl)phenyl] urea]",1300,,1.2
"CN1C(=O)C(NC(=O)Nc2cccc(-c3cc(=O)c(O)co3)c2)N=C(C2CCCCC2)c2ccccc21 (racemic) [Example 43, N-[3(R,S)-5-Cyclohexyl-2,3-dihydro-1-methyl-2-oxo-1H-1,4-benzodiazepin-3-yl] N′-[3-(5-hydroxy-4-pyron-2-yl)phenyl] urea]",17.8,,2.1
"CN1C(=O)C(NC(=O)Nc2cccc(S(=O)(=O)NC(=O)C(C)(C)C)c2)N=C(C2CCCCC2)c2ccccc21 (racemic) [Example 32, N-(3(R,S)-5-Cyclohexyl-2,3-dihydro-1-methyl-2-oxo-1H-1,4-benzodiazepin-3-yl] N′-(3-(1,1-dimethylethylcarbonylaminosulphonyl)phenyl] urea]",610,,1.3
